Measured values published in patent US11185527B2, “Methods and compositions relating to steroid hormone receptor-dependent cancers” (Wayne State University, priority 2017, dated 2021).

Assays:
[1] = system: 22Rv1 human CRPC xenograft; assay: 22Rv1 CRPC tumor xenograft in male SCID mice, tumor growth; settings: KCI807 IP 250-300 mg/kg every other day; enzalutamide PO 50-60 mg/Kg daily; from day 3
ZR-75-1 cells = assay: Breast cancer cell growth, MTT assay; type: cell-based
Experimental: FIG. 17A is a graph showing the effect on growth of various concentrations of 5,3′-Dihydroxyflavone on breast cancer cell line ZR-75-1 using the MTT assay.
Twenty four hours after plating the cells, they were treated with the indicated concentrations of the compound.

[2] = system: AR target genes in 22Rv1 CRPC cells; assay: Real time RT-PCR of AR target gene mRNAs in 22Rv1 cells; type: cell-based, human; settings: 22Rv1, 10 μM, 72h
Experimental: FIG. 3D is a graph showing that in 22Rv1 cells were treated with 10 μM of KCI807 for 72h and real time RT-PCR was used to measure mRNAs for the indicated panel of genes tested in FIG. 3B and FIG. 3C.
Total RNA was isolated from cells using the RNeasy Mini Kit (Qiagen). Reverse transcription PCR was then performed using 500 ng of total RNA with random primers and using the high-capacity complementary DNA Archive kit (Applied Biosystems). The complementary DNA from this reaction was measured using quantitative real time PCR using the StepONE Plus Real Time PCR system (Life Technologies Corporation, Carlsbad, Calif.). All reactions were performed in triplicate and normalized to glyceraldehyde-3-phosphate-dehydrogenase values in the same samples. All primers and Taqman probes were purchased from the applied Biosystems inventory (Invitrogen)
To test the selectivity of KCI807 for ELK1-dependent gene activation by AR vs. other target genes of the receptor, 22Rv1 CRPC cells, which are dependent on both full length AR and AR-V7 for hormone-independent growth, were used. […]

[3] = system: activation of ELK1 by MEK/ERK; assay: Gal4-ELK1 reporter activation by constitutively active MEK1 in transfected HeLa cells; type: cell-based; settings: HeLa cells with caMEK1; trametinib 1 μM, KCI807 20 μM
Experimental: FIG. 8 is a graph showing results of co-transfection of HeLa cells with the Gal4-TATA-Luc construct and the expression plasmid for the Gal4-ELK1 fusion protein. In addition the cells were transfected with an expression plasmid for a constitutively active MEK1 protein (caMEK1). The cells were then treated with the MEK1 inhibitor, trametinib (1 μM), KCI807 (20 μM), or vehicle (DMSO). Cells were harvested 48h post transfection and luciferase activity was measured. In all panels, the error bars represent standard deviation of experimental triplicates. *P<0.001
Hela Cells were plated in a 24-well plate at a concentration of 75,000 cells/well in antibiotic-free red DMEM. The following day the cells were transfected with a total of 300 ng of plasmid DNA/well using Lipofectamine 2000. The cells were incubated for 24h then lysed using luciferase assay lysis buffer 5X from Promega. The luciferase activity of the cell lysates were measured using firefly substrate from Promega and a luminometer (Lumat LB9501, Berthold, Wildbad, Germany).
As a secondary test of target selectivity, the effect of 5,3′-dihydroxyflavone on activation of ELK1 by MEK/ERK was examined using HeLa cells co-transfected with the Gal4-TATA-Luc construct, the expression plasmid for the Gal4-ELK1 fusion protein and either an expression plasmid for a constitutively active MEK1 protein (caMEK1) or vector control.

Row | Structure (SMILES) | tumor growth inhibition, 22Rv1 xenograft [1] | growth of ZR-75-1 cells (ZR-75-1 cells) | effect on mRNA of AR target genes [2] | inhibition of luciferase reporter activation by MEK1 (activation of ELK1 by MEK/ERK) [3]
1 | O=c1cc(-c2cccc(O)c2)oc2cccc(O)c12 [KCI807, 5,3′-dihydroxyflavone] | inhibited | did not inhibit the growth | decreased expression of only the genes known to be supported synergistically by ELK1 and AR | did not inhibit
2 | O=c1cc(-c2cc(O)cc(F)c2)oc2cccc(O)c12 [5′-fluoro-5,3′-dihydroxyflavone] |  |  |  | did not affect
